Laboratory results taken from patent EP0525360B1, “Novel phenylacetamide derivatives and processes for the preparation thereof” (KOREA RESEARCH INSTITUTE OF CHEMICAL TECHNOLOGY, priority 1991, dated 1993).
Where two headings read alike, the source gives them in different places.

What was measured:
[1] = Use Examples: administration of compositions to human subjects; assay type: in vivo; details: Use Example 2 soft gelatin capsules in sesame oil; two capsules, each 27mg of the composition; 63Kg person
Method: One tablet was administered orally to a patient(weight: 67kg) in need of analgesia two times daily to successfully provide the effect of general analgesia.
The compound of Example 5 was dissolved in sesame oil with the aid of sonication and was packaged in soft gelatin capsules using the common methods known in the art.
The above ingredients were mixed to produce a syrup which was packaged under a sterile condition in 6 oz. bottles. One teaspoon of this formulation was administrated to a 70kg adult, reducing inflammation and producing analgesia.
The compound of Example 1 was dissolved in a solution containing the other ingredients.

acute toxicity test = details: mouse, in vivo, po, per os, 5 weeks old, observed for 14 days
[2] = test system: Rats(Sprague-Dawley, female); test: Anti-inflammatory test (carrageenin paw edema); assay type: in vivo; details: Rattus norvegicus, sc
Method: Rats(Sprague-Dawley, female) weighing 100 to 120g were used. Twenty minutes after the test drug was administered(s. c.), carrageenin was injected(0.1mℓ of 1% solution, s. c.) in the plantar surface of the right hind paw.
The percentage of inhibition was determined by the following equation: Inhibition(%) =(Volume of the carrageenin treated foot - Volume of the control foot)/(Volume of the contol foot)x 100 [formula]

KTC-ICR mice [3] = test: acetic acid induced writhing test; assay type: in vivo; details: Mus musculus; oral; 0.9% acetic acid i.p. 60 minutes later; writhings during 10 minutes; mice 20 to 25g; Examples 1 to 32
Method: (§1) The KTC-ICR mice derived from Charles River Breeding Laboratory in the United States and provided by Experimental Animal Laboratory of Korea Research Institute of Chemical Technology were used as test animals. […] They were tested after having been adjusted to the testing environment for a week. Food and water were given freely; and illumination was maintained on a 12-hour cycle.
(§2) Experiments were performed in two ways: that is, the acetic acid induced writhing test and the phenyl-1,4-benzoquinone(PBQ) induced writhing test.
Solutions for the acetic acid induced writhing test were prepared by dissolving one of the end products prepared in Examples […] in a saline solution containing 1% by weight of Tween 80 to have a concentration of 5mg/mℓ and diluting it serially with the saline solution. The test solutions were administered orally in a dose of 0.3mℓ per 30g of body weight, using the 5 ICR mice for each test. 60 minutes later, 0.9% acetic acid solution was administered intraperitoneally in a dose of 0.1mℓ per 30g of body weight. 3 minutes thereafter, the number of writhings generated during a period of 10 minutes due to the administration of acetic acid was measured. For comparison purpose, initially, saline solution alone was administered orally to the control group. 60 minutes thereafter, 0.9% acetic acid solution was administered intraperitoneally to the control group.
(§3) The number of writhings suffered by the test group was compared with that of the control group; and the analgesic effect was measured in terms of the percentage of inhibition of writhing(I. W.). I. W. (%) =(A - B)/(A)x 100 [formula] A : the number of writhings suffered by the control group, B : the number of writhings suffered by the test group.
(§4) These ED50 values for the test compounds are shown in the last column of Table 1.

[4] = test system: Male albino rats(120-170g) of the Charles River Sprague-Dawley strain; test: Randall-Selitto test (yeast induced hyperalgesia); assay type: in vivo; details: rat, in vivo, 3 mg/kg
Method: Randall-Selitto Test was carried out by following the method described in Arch. Int. Pharmacodyn.
Male albino rats(120-170g) of the Charles River Sprague-Dawley strain were used. Inflammation was produced by the injection of 0.1mℓ of a 20% suspension of Brewer's yeast into the plantar surface of the rat's hind foot.
The pain threshold was measured as the pressure in mmHg required to induce the desired response(a sharp audible squeak and/or struggle) when the pressure was applied to the foot. Air pressure from an air line was admitted through a needle valve to a 20mℓ glass syringe and to a pressure gauge which was connected by a T-tube. The syringe was mounted with the plunger downward to which was connected a short bullet-shaped Teflon peg. The pressure was applied to the foot of the rat at the rate of 10 mmHg per second. Drug was given 2 hours after the yeast injection. Two hours after the drug administration, threshold response was determined.
The analgesic activity was determined in terms of the percentage of inhibition of response: Inhibition(%) =(Threshold of the treated group - Threshold of the control group)/(Threshold of the control group)x 100 [formula]

test animals = test: Behavior analysis (side-effect or toxicity scores); assay type: in vivo; parameters: key to Sedation / Dyspnoea / Vasodilation / Convulsion / Salivation / Urination: behavior score; higher number = greater side effects; details: behavior score; for Convulsion / Salivation / Urination: normal value 0; for Dyspnoea / Ptosis / Sedation / Vasodilation: normal value 4
From the text: In order to monitor a harmful side-effect or toxicity of the compounds having the formula(I), various behavioral changes in the test animals were observed. […] The higher the number is, the greater the side effects are.

KTC-ICR mice [5] = test: phenyl-1,4-benzoquinone(PBQ) induced writhing test; assay type: in vivo; details: Mus musculus; oral; 0.02% PBQ i.p. 60 minutes later; writhings during 5 minutes; mice 10 to 15g; Examples 33 to 46
Method: as §1, §2
Alternatively, solutions for the PBQ induced writhing test were prepared by dissolving one of the products synthesized in Examples 33 to 46 in a mixture of Tween 80, alcohol and distilled water (1:5:94); and administered orally to the 5 ICR mice for each test in a dose of 0.3mℓ per 30g of body weight. 60 minutes later, 0.02% PBQ solution was administered intraperitoneally in a dose of 0.1mℓ per 30g of body weight of the test animals. 5 minutes thereafter, at the temperature of 40°C, the number of writhings occurred during a period of 5 minutes due to the PBQ solution administered was measured. For comparison, only the mixture of Tween 80, alcohol and distilled water was administered orally to the control group; and, after 60 minutes, the PBQ solution was administered intraperitoneally to the control group in the same manner as mentioned above.
as §3, §4

mice = test: Tail-flick test (radiant heat); assay type: in vivo; details: p. o., dose 100 mg/Kg
Method: Radiant heat was applied using a beam of high-intensity light focused on a tail spot. The response time, defined as the interval between the onset of the stimulus and the tail flick, was measured electronically(to the nearest 0.1 second). The beam intensity was set at a level giving a mean control reaction time of 3.8±0.4 seconds. […] The percentage of inhibition was determined by the following equation: Inhibition(%) =(Reaction time of the treated group - Reaction time of the control group)/(Reaction time of the control group)x 100 [formula]

[6] = 5 ICR female mice, read-out: LD50(female)
[7] = 5 ICR male mice, read-out: LD50(male)

Question: Which “analgesic and anti-inflammatory effect in a human subject” value [1] does the source give for `COc1cc(CC(=O)NCCCc2cccc(C)c2)ccc1OCCN` [Example 5] here?
Answer: producing the effects of analgesia and reducing inflammation

Question: What about the LD50 at 336 h (acute toxicity test; [6]) of the same compound?
Answer: 125 mg/kg

Question: What about the LD50 at 336 h (acute toxicity test; [7]) of the same compound?
Answer: 125 mg/kg

Question: And the ED50 ([2]; s. c., twenty minutes before carrageenin, edema volume 3 hours later, read-out: ED50)?
Answer: 16.9 mg/kg

Question: What about the ED50 (KTC-ICR mice [3]) of the same compound?
Answer: 0.07 mg/kg

Question: Which “Inhibition(%)” value [4] does the source give for `CN1CC[C@]23c4c5ccc(O)c4O[C@H]2[C@@H](O)C=C[C@H]3[C@H]1C5` [Morphine] here?
Answer: 391.7%

Question: For `NCCOc1ccc(CC(=O)NCCCc2ccc(F)cc2)cc1N` [Example 40, N-{3-(4-fluorophenyl)propyl}-4-(2-aminoethoxy)-3-aminophenylacetamide], which Convulsion (test animals; dose 10mg/Kg) is on record?
Answer: 0

Question: And the Salivation (test animals; dose 10mg/Kg)?
Answer: 0

Question: And the Urination (test animals; dose 10mg/Kg)?
Answer: 0

Question: And the Dyspnoea (test animals; dose 10mg/Kg)?
Answer: 4

Question: And the Ptosis (test animals; dose 10mg/Kg)?
Answer: 4

Question: What about the Sedation (test animals; dose 10mg/Kg) of the same compound?
Answer: 4

Question: What about the Vasodilation (test animals; dose 10mg/Kg) of the same compound?
Answer: 4

Question: And the Convulsion (test animals; dose 25mg/Kg)?
Answer: 0

Question: What about the Salivation (test animals; dose 25mg/Kg) of the same compound?
Answer: 0

Question: What about the Urination (test animals; dose 25mg/Kg) of the same compound?
Answer: 0

Question: What about the Dyspnoea (test animals; dose 25mg/Kg) of the same compound?
Answer: 4

Question: And the Ptosis (test animals; dose 25mg/Kg)?
Answer: 4

Question: And the Sedation (test animals; dose 25mg/Kg)?
Answer: 4

Question: What about the Vasodilation (test animals; dose 25mg/Kg) of the same compound?
Answer: 4

Question: What about the Convulsion (test animals; dose 50mg/Kg) of the same compound?
Answer: 0

Question: What about the Salivation (test animals; dose 50mg/Kg) of the same compound?
Answer: 0

Question: And the Urination (test animals; dose 50mg/Kg)?
Answer: 0

Question: What about the Dyspnoea (test animals; dose 50mg/Kg) of the same compound?
Answer: 4

Question: And the Ptosis (test animals; dose 50mg/Kg)?
Answer: 4

Question: And the Sedation (test animals; dose 50mg/Kg)?
Answer: 4

Question: What about the Vasodilation (test animals; dose 50mg/Kg) of the same compound?
Answer: 4

Question: And the ED50 (KTC-ICR mice [5])?
Answer: 37.8 mg/kg

Question: And the “Inhibition(%)” value (mice)?
Answer: 50%

Question: What does the source list for `NCCOc1ccc(CC(=O)NCCCc2ccc(Cl)c(Cl)c2)cc1N` [Example 41, N-{3-(3,4-dichlorophenyl)propyl}-4-(2-aminoethoxy)-3-aminophenylacetamide]?
Answer: Convulsion (test animals; dose 25mg/Kg): 0; Salivation (test animals; dose 25mg/Kg): 0; Urination (test animals; dose 25mg/Kg): 0; Dyspnoea (test animals; dose 25mg/Kg): 4; Ptosis (test animals; dose 25mg/Kg): 4; Sedation (test animals; dose 25mg/Kg): 4; Vasodilation (test animals; dose 25mg/Kg): 4; Convulsion (test animals; dose 50mg/Kg): 0; Salivation (test animals; dose 50mg/Kg): 0; Urination (test animals; dose 50mg/Kg): 0; Dyspnoea (test animals; dose 50mg/Kg): 4; Ptosis (test animals; dose 50mg/Kg): 4; Sedation (test animals; dose 50mg/Kg): 5; Vasodilation (test animals; dose 50mg/Kg): 4; Convulsion (test animals; dose 100mg/Kg): 0; Salivation (test animals; dose 100mg/Kg): 0; Urination (test animals; dose 100mg/Kg): 0; Dyspnoea (test animals; dose 100mg/Kg): 5; Ptosis (test animals; dose 100mg/Kg): 5; Sedation (test animals; dose 100mg/Kg): 6; Vasodilation (test animals; dose 100mg/Kg): 4; ED50 (KTC-ICR mice [5]): 7.18 mg/kg

Question: For `Cc1cc(C)cc(CCCNC(=O)Cc2ccc(OCCN)c(F)c2)c1` [Example 15], which LD50 at 336 h (acute toxicity test; [6]) is on record?
Answer: > 2000 mg/kg

Question: And the LD50 at 336 h (acute toxicity test; [7])?
Answer: > 2000 mg/kg

Question: What about the ED50 (KTC-ICR mice [3]) of the same compound?
Answer: 0.02 mg/kg

Question: Which ED50 ([2]; 3 h) does the source give for `CC(C(=O)O)c1cccc(C(=O)c2ccccc2)c1` (stereo not shown) [Ketoprofen] here?
Answer: 7.2 mg/kg
